# Like-named read-outs stand apart in the source and are kept apart here.
# How the values were obtained:
# [1] = system: SARS-COV-2; assay: Combination with SARS-COV-2 nsp14 (exonuclease) inhibitors in Calu-3 cells, infectious virus titers; format: cell-based; conditions: for EC50 / EC99 mean / EC90: Calu-3, alone or in combination as labelled; for effect on SARS-COV-2 replication / effect of co-treatment with raltegravir or dolutegravir (iEXO) on inhibition of SARS-COV-2: calu-3; for effect on SARS-COV-2 replication: 5 μM; for effect of co-treatment with raltegravir or dolutegravir (iEXO) on inhibition of SARS-COV-2: drug 10 μM, raltegravir or dolutegravir 5 μM
# [2] = system: SARS-COV-2; assay: SARS-COV-2 viral RNA synthesis in Vero cells (real time RT-PCR); format: cell-based; conditions: for SI: Vero, CC50/EC50
# [3] = system: SARS-COV-2; assay: SARS-COV-2 viral RNA synthesis in HuH-7 cells (real time RT-PCR); format: cell-based; conditions: for SI: Huh-7, CC50/EC50
# [4] = Cytotoxicity assay (XTT) in Vero cells; format: cell-based; conditions: African green monkey
# Description: (§1) In parallel, cytotoxicity assays were performed.
# [5] = Cytotoxicity assay (XTT) in Huh-7 cells; format: cell-based; conditions: human
# Description: In parallel, cytotoxicity assays were performed. Monolayers of 1.5×10^4 cells in 96-well plates were treated for 3 days with various concentrations (semi-log dilutions from 1,000 to 10 μM) of the antiviral drugs. Then, 5 mg/mL 2,3-bis-(2-methoxy-4-nitro-5-sulfophenyl)-2H-tetrazolium-5-carboxanilide (XTT) in DMEM was added to the cells in the presence of 0.01% of N-methyl dibenzopyrazine methyl sulfate (PMS).
# [6] = Cytotoxicity assay (XTT) in Calu-3 cells; format: cell-based, human; conditions: human
# Description: as §1
# [7] = system: SARS-COV-2; assay: SARS-COV-2 RNA loads in human primary monocytes; format: cell-based; conditions: 24 h
# Description: (§2) FIG. 5A, 5B and 5C. The compounds impair SARS-COV-2 RNA synthesis and SARS-COV-2-induced release of inflammatory mediators in human primary monocytes.
# (§3) Human primary monocytes were obtained after 3 h of plastic adherence of peripheral blood mononuclear cells (PBMCs). PBMCs were isolated from healthy donors by density gradient centrifugation (Ficoll-Paque, GE Healthcare). PBMCs (2.0×10^6 cells) were plated onto 48-well plates (NalgeNunc) in RPMI-1640 without serum for 2 to 4 h. Non-adherent cells were removed, and the remaining monocytes were maintained in DMEM with 5% human serum (HS; Millipore) and penicillin/streptomycin. Monocytes were infected at MOI of 0.1. After 1 h inoculation period, cells were washed with phosphate saline buffer (PBS) to remove unbounded viruses and treated with 1 μM of the indicated compounds. After 24 h after infection, cell monolayers werc lysed total viral RNA was extracted, quantitative RT-PCR was performed, to detect the SARS-COV-2 and the housekeeping gene RNAse P.
# [8] = system: SARS-COV-2; conditions: for SI: CC50/EC50
# [9] = system: SARS-COV-2; assay: SARS-COV-2 viral RNA synthesis in Calu-3 cells (real time RT-PCR); format: cell-based; conditions: 1.0 μM
# [10] = system: Calu-3 cells; assay: Cytotoxicity assay (XTT) in Calu-3 cells; format: cell-based, human
# Description: as §1
# [11] = system: TNF-α and IL-6; assay: TNF-α and IL-6 levels in supernatant of SARS-COV-2-infected human primary monocytes; format: cell-based; conditions: 24 h
# Description: as §2, §3
# [12] = system: Salmonella typhimirium TA 97a, TA 98, TA 100, TA 102 and TA 1535; assay: Bacterial reverse mutation (Ames) test
# [13] = system: mouse bone marrow polychromatic erythrocytes; assay: Micronucleus test in mouse bone marrow; format: in vivo; conditions: mice; 25 mg/Kg i.p.
# Description: The ratio of polychromatic to normochromatic erythrocytes and the count of micronuclei were determined. This assay was conducted in compliance with the GLP principles.
# [14] = Severe acute respiratory syndrome coronavirus 2
# [15] = Severe acute respiratory syndrome coronavirus 2, Vero (MOI 0.01 24 h), read-out: EC50
# [16] = Severe acute respiratory syndrome coronavirus 2, Huh-7 (MOI 0.1 48 h), read-out: EC50
# [17] = Calu-3, single moment treatment
# [18] = Severe acute respiratory syndrome coronavirus 2, Calu-3, 72 h, Calu-3 (MOI 0.5 72 h), single moment treatment
# [19] = Table 6, Calu-3, daily treatment
# [20] = Table 6, Calu-3, single treatment
# [21] = Severe acute respiratory syndrome coronavirus 2, Calu-3, 72 h, Calu-3 (MOI 0.5 72 h), daily treatment
# [22] = Severe acute respiratory syndrome coronavirus 2, Calu-3, Table 6, Calu-3, daily treatment
# [23] = Severe acute respiratory syndrome coronavirus 2, Calu-3, Table 6, Calu-3, single treatment
structure (smiles),measurement,setting,value
"Cc1nnc(C(=O)NC(C)(C)c2nc(C(=O)NCc3ccc(F)cc3)c(O)c(=O)n2C)o1 [RTG, raltegravir]",EC50,[1]; [14],4.8 µM
same,effect on SARS-COV-2 replication,[1],marginal effects
"C/C(=C\CNc1ncnc2c1ncn2[C@@H]1O[C@H](CO)[C@@H](O)[C@H]1O)CO [MB-804, zeatin riboside]",EC50,[2]; [15],1.4 µM
same,SI,[2],454
same,SI,[3],78
same,EC50,[3]; [16],7.2 µM
same,CC50 at 3 days,[4],636 µM
same,CC50 at 3 days,[5],550 µM
same,CC50 at 3 days,[6]; [17],580 µM
same,viral RNA levels/cell,[7],reduced
same,effect of co-treatment with raltegravir or dolutegravir (iEXO) on inhibition of SARS-COV-2,[1],synergistic
same,SI,[8]; [17],500
same,EC50,[8]; [18],1.2 µM
same,EC90,[8]; [18],9.1 µM
COC(=O)N[C@H](C(=O)N1CCC[C@H]1C(=O)Nc1ccc([C@@H]2CC[C@@H](c3ccc(NC(=O)[C@@H]4CCCN4C(=O)[C@@H](NC(=O)OC)C(C)C)cc3)N2c2ccc(C(C)(C)C)cc2)cc1)C(C)C [Ombitasvir],EC99 mean,[1],18 µM
same,EC50,[1]; [14],0.4 µM
same,EC90,[1]; [14],3.3 µM
"CC(C)OC(=O)[C@H](C)NP(=O)(OC[C@H]1O[C@@H](n2cnc3c(NCc4ccco4)ncnc32)[C@H](O)[C@@H]1O)Oc1ccccc1 (some centres unmarked) [MB-711, kinetin riboside monophosphoramidate]",inhibition of SARS-COV-2 RNA synthesis,[9],best profiles
same,CC50 at 3 days,"[6]; Calu-3, daily treatment",580 µM
same,CC50 at 3 days,[6]; [17],562 µM
same,CC50 at 3 days,[6]; [19],580 µM
same,CC50 at 3 days,[6]; [20],562 µM
same,effect of co-treatment with raltegravir or dolutegravir (iEXO) on inhibition of SARS-COV-2,[1],synergistic
same,SI,"[8]; Calu-3, daily treatment",58000 µM
same,SI,[8]; [17],510
same,EC50,[8]; [21],0.01 µM
same,EC90,[8]; [21],3.8 µM
same,EC50,[8]; [18],1.1 µM
same,EC90,[8]; [18],9.2 µM
same,EC50,[8]; [22],0.01 µM
same,EC90,[8]; [22],3.8 µM
same,EC50,[8]; [23],1.1 µM
same,EC90,[8]; [23],9.2 µM
same,SI,[8]; [19],"58,000"
same,SI,[8]; [20],510
"OC[C@H]1O[C@@H](n2cnc3c(NCc4ccco4)ncnc32)[C@H](O)[C@@H]1O [MB-801, kinetin riboside]",EC50,[2]; [15],8 µM
same,SI,[3],2290
same,EC50,[3]; [16],0.1 µM
same,inhibition of SARS-COV-2 RNA synthesis,[9],best profiles
same,CC50 at 3 days,[5],229 µM
same,CC50 at 3 days,[6]; [19],530 µM
same,CC50 at 3 days,[6]; [20],550 µM
same,CC50,"[10]; Calu-3, daily treatment",530 µM
same,CC50,[10]; [17],550 µM
same,viral RNA levels/cell,[7],reduced
same,SARS-CoV-2-induced enhancement of IL-6 levels in culture supernatant,[11],reduced
same,SARS-CoV-2-induced enhancement of TNF-α levels in culture supernatant,[11],reduced
same,effect of co-treatment with raltegravir or dolutegravir (iEXO) on inhibition of SARS-COV-2,[1],synergistic
same,SI,"[8]; Calu-3, daily treatment",26500 µM
same,SI,[8]; [17],3055
same,EC50,[8]; [21],0.02 µM
same,EC90,[8]; [21],3.7 µM
same,EC50,[8]; [18],0.18 µM
same,EC90,[8]; [18],7.2 µM
same,EC50,[8]; [22],0.02 µM
same,EC90,[8]; [22],3.7 µM
same,EC50,[8]; [23],0.18 µM
same,EC90,[8]; [23],7.2 µM
same,SI,[8]; [19],"26,500"
same,SI,[8]; [20],3.055
"Nc1ccc2cc3ccccc3cc2c1 [2-aminoanthracene, reference compound]",Mutagenicity,"[12]; TA 102 +S9, positive control 5 μg/plate",+
same,Mutagenicity,"[12]; TA 1535 +S9, positive control 2.5 μg/plate",+
C[C@H](Cn1cnc2c(N)ncnc21)OCP(=O)(O)O [Tenofovir],EC50,[1],4.3 µM
same,effect of co-treatment with raltegravir or dolutegravir (iEXO) on inhibition of SARS-COV-2,[1],enhanced efficiency
"C/C(=C\CNc1ncnc2[nH]cnc12)CO [MB-907, zeatin]",EC50,"[2]; Severe acute respiratory syndrome coronavirus 2, Vero, 24 h",6 µM
same,EC50,"[3]; Severe acute respiratory syndrome coronavirus 2, Huh-7, 48 h",0.05 µM
same,CC50 at 3 days,[5],600 µM
"CCC(CC)COC(=O)[C@H](C)N[P@](=O)(OC[C@H]1O[C@@](C#N)(c2ccc3c(N)ncnn23)[C@H](O)[C@@H]1O)Oc1ccccc1 [Remdesivir, reference compound]",EC50,[2]; [15],0.7 µM
same,SI,[2],757
same,SI,[3],46666
same,EC50,[3]; [16],0.006 µM
same,CC50 at 3 days,[4],530 µM
same,CC50 at 3 days,[5],280 µM
same,CC50 at 3 days,[6]; [19],330 µM
same,CC50 at 3 days,[6]; [20],350 µM
same,EC99 mean,[1],1.1 µM
same,EC50,[1]; [14],0.09 µM
same,EC90,[1]; [14],0.4 µM
same,SI,[8]; [17],2300
same,EC50,[8]; [21],0.01 µM
same,EC90,[8]; [21],0.2 µM
same,EC50,[8]; [18],0.15 µM
same,EC90,[8]; [18],0.4 µM
same,EC50,[8]; [22],0.01 µM
same,EC90,[8]; [22],0.2 µM
same,EC50,[8]; [23],0.15 µM
same,EC90,[8]; [23],0.4 µM
same,SI,[8]; [19],"3,3000"
same,SI,[8]; [20],2.300
COC(=O)N[C@H](C(=O)N1CCC[C@H]1c1nc2cc([C@H]3CC[C@H](c4cc5nc([C@@H]6CCCN6C(=O)[C@@H](NC(=O)OC)[C@@H](C)OC)[nH]c5cc4F)N3c3cc(F)c(N4CCC(c5ccc(F)cc5)CC4)c(F)c3)c(F)cc2[nH]1)[C@@H](C)OC [Pibrentasvir],EC99 mean,[1],19 µM
same,EC50,[1]; [14],0.7 µM
same,EC90,[1]; [14],4.2 µM
COC(=O)N[C@H](C(=O)N1CCC[C@H]1c1nc(-c2ccc(-c3ccc(-c4c[nH]c([C@@H]5CCCN5C(=O)[C@@H](NC(=O)OC)C(C)C)n4)cc3)cc2)c[nH]1)C(C)C [Daclatasvir],EC50,[1]; [14],0.7 µM
same,EC90,[1]; [14],3.8 µM
"O=P1(N(CCCl)CCCl)NCCCO1 (centres unmarked) [Cyclophosphamide, reference compound]","MNPCE/4,000 PCE (Mean ± S.D.)",[13],16.20 ± 6.03
"C[C@@H]1CCO[C@H]2Cn3cc(C(=O)NCc4ccc(F)cc4F)c(=O)c(O)c3C(=O)N12 [DTG, dolutegravir]",EC50,[1]; [14],5.3 µM
same,effect on SARS-COV-2 replication,[1],marginal effects
c1coc(CNc2ncnc3c2ncn3C2CCCCO2)c1 (centres unmarked) [MB-906],anti-coronavirus activity (SARS-COV-2 replication),[3],not endowed with anti-coronavirus activity
same,anti-coronavirus activity (SARS-COV-2 replication),[8],not endowed with anti-coronavirus activity
NC(=O)c1nc(F)c[nH]c1=O [Favipiravir],EC50,[1]; [14],7.8 µM
"[N-]=[N+]=[N-] [sodium azide, reference compound]",Mutagenicity,"[12]; TA 100 −S9, positive control 1.5 μg/plate",+
same,Mutagenicity,"[12]; TA 1535 −S9, positive control 1.5 μg/plate",+
"CC(C)C(=O)OC[C@H]1O[C@@H](n2ccc(NO)nc2=O)[C@H](O)[C@@H]1O [MK-4482, N-4-hydroxycytidine-5′-isopropyl ester, reference compound]",CC50 at 3 days,[6]; [19],58 µM
same,CC50 at 3 days,[6]; [20],58 µM
same,CC50,"[10]; Calu-3, daily treatment",58 µM
same,EC99 mean,[1],9 µM
same,EC50,[1]; [14],0.8 µM
same,EC90,[1]; [14],7 µM
same,efficiency impaired due to daily treatment,[8]; Calu-3,2 times
same,SI,"[8]; Calu-3, daily treatment",2900 µM
same,EC50,[8]; [21],0.02 µM
same,EC90,[8]; [21],8.6 µM
same,EC50,[8]; [22],0.02 µM
same,EC90,[8]; [22],8.6 µM
same,EC50,[8]; [23],0.72 µM
same,EC90,[8]; [23],3.4 µM
same,SI,[8]; [19],"2,900"
same,SI,[8]; [20],80
CC(C)OC(=O)[C@H](C)N[P@](=O)(OC[C@H]1O[C@@H](n2ccc(=O)[nH]c2=O)[C@](C)(F)[C@@H]1O)Oc1ccccc1 [sofosbuvir],effect of co-treatment with raltegravir or dolutegravir (iEXO) on inhibition of SARS-COV-2,[1],enhanced efficiency
